# Experimental data from patent publication US20030021796A1, “Method of enhancing T cell immunity by selection of antigen specific T cells” (priority 2001, published 2003).
# “Also recorded” adds a separate entry of the source.
# What was measured:
# peripheral CD4^+ T cells = experiment: Peptide injection into thymectomized TCR^TgTCRα^−H2-M^−Ii^− mice; type: in vivo, mouse; settings: two weeks after injection
# Description: Since the selecting peptide is an agonist, in a specific embodiment of the present invention the observed phenomenon results from the expansion of a small number of peripheral transgenic CD4^+ T cells rather than from induced positive selection. To test this possibility, two types of experiments have been performed. In the first experiment, the PCC TgTCRα^−H-2M^−Ii^− mice were thymectomized and then injected with the PCC50V54A peptide. Two weeks after injection, these mice were sacrificed and the number of peripheral CD4^+ T cells was counted. […] After 10 days, recipient mice were sacrificed and the presence of transgenic CD4^+ T cells in the transplanted thymus and lymph nodes was determined by FACS analysis. […]
# (§1) Since the selecting peptide is an agonist, one could argue that the observed phenomenon results from the expansion of a small number of peripheral transgenic CD4^+ T cells rather than from induced positive selection (Martin & Bevan, 1997). […] Two weeks after injection, the mice were sacrificed and the number of peripheral CD4^+ T cells was counted. […] After 10 days, recipient mice were sacrificed and the presence of transgenic CD4^+ T cells in the transplanted thymus and host lymph nodes was determined by FACS analysis. […]
# transgenic CD4^+ T cells = experiment: Neonatal thymus transplant under the kidney capsule of TCRα^−H2-M^−Ii^− recipients with selecting peptide; type: in vivo, mouse
# Description: Since the selecting peptide is an agonist, in a specific embodiment of the present invention the observed phenomenon results from the expansion of a small number of peripheral transgenic CD4^+ T cells rather than from induced positive selection. To test this possibility, two types of experiments have been performed. In the first experiment, the PCC TgTCRα^−H-2M^−Ii^− mice were thymectomized and then injected with the PCC50V54A peptide. Two weeks after injection, these mice were sacrificed and the number of peripheral CD4^+ T cells was counted. […] In the second experiment, the neonatal thymi from TgTCRα^−H-2M^−Ii^− mice were transplanted under the kidney capsule of H-2M^−Ii^− TCRα^− mice, which are devoid of T cells. Two days after surgery, half of the recipient mice were injected with the selecting peptide. After 10 days, recipient mice were sacrificed and the presence of transgenic CD4^+ T cells in the transplanted thymus and lymph nodes was determined by FACS analysis. […] Apparently, CD4^+ T cells appear in the peripheral lymph nodes of PCC TgTCRα^−H-2M^−Ii^− injected with the PCC50V54A peptide as a result of positive selection by this peptide.
# Peptide injections and surgical procedures. TCR^TgTCRα^− and TCR^TgTCRαH2-M^−Ii^− were injected i.p. with agonist and control peptides dissolved in PBS. After indicated time mice were sacrificed, thymus and lymph nodes were collected and single cell suspensions were prepared. Pups were injected with 2 μg of peptide subcutaneously 12-24 hours after birth and thymi were transplanted into recipient mice 24 hours after injection. […]
# as §1
# transgenic thymocytes [1] = experiment: Fetal thymic organ cultures (FTOC) from TgTCRα^−H-2M^−Ii^− mice with peptide; type: cell-based, mouse; settings: continuous delivery of peptide at low concentration
# Description: The TgTCRα^−H-2M^−Ii^− system enables the visualization of thymocyte positive selection in real time and in the native intrathymic environment. An in vitro system was setup where the transgenic thymocytes undergo efficient positive selection and commit to the CD4^+ lineage. […] These observations agreed with the previous reports in which CD8^+, but not CD4+, T cells could be positively selected by the specific peptide in FTOCs (Kenty et al., 1998; Liblau et al, 1996). Therefore, neonatal thymic organ cultures (NTOC) were established from TgTCRα^−-H-2M^−Ii^− neonates. The neonates received a single i.p. injection of the PCC50V54A peptide just after birth and were sacrificed 24 hours later when their thymuses were harvested.
# lymph node cells = experiment: Repopulation of peripheral lymph nodes in peptide-injected TCR^TgTCRα^−H2-M^−Ii^− mice; type: in vivo, mouse
# Method: (§2) Flow cytometry analysis. Monoclonal antibodies specific for CD4(RM4-5), CD8(53-6.7), VβB8(F23.1), CD69(H1.2F3), CD44(IM7) and CD62L(MEL-14) were purchased from PharMingen (San Diego, Calif.) and used according to manufacturer's recommendations. Cells were analyzed using a FACSCalibur instrument (Becton Dickinson, San Jose, Calif.) and CellQuest software. For intracellular stain cells were first stained for CD4 and CD8, fixed in 2% paraformaldehyde, permeabilized in 0.1% Tween-20 and stained with anti-bcl-2 antibody (Pharmingen) according to manufacturer instruction.
# (§3) Peptide injections and surgical procedures. TCR^TgTCRα^− and TCR^TgTCRαH2-M^−Ii^− were injected i.p. with agonist and control peptides dissolved in PBS. After indicated time mice were sacrificed, thymus and lymph nodes were collected and single cell suspensions were prepared. Pups were injected with 2 μg of peptide subcutaneously 12-24 hours after birth and thymi were transplanted into recipient mice 24 hours after injection. 5-8 week old TCR^TgTCRα^− H2-M^−Ii^− mice were used for thymectomy or as thymic transplant recipients. Surgical procedures were performed as described (Coligan et al., 1997). Mice were handled according with the institutional guidance.
# transgenic thymocytes [2] = experiment: Negative selection of transgenic thymocytes after i.p. peptide injection into TCR^TgTCRα^− mice (wild type A^b); type: in vivo, mouse
# Method: as §2, §3
# Characterization of peptide agonists for the PCC specific transgenic αβTCR. To examine the role of peptides during positive selection in vivo, the inventors generated transgenic mice expressing class II restricted TCR specific for analogs of a pigeon cytochrome C peptide PCC(43-58) presented by the A molecule (Kraj et al., 2001). This receptor recognizes analogs of PCC(43-58) in which aspartic acid in position 50 is replaced by amino acids with neutral/hydrophobic (PCC50V, PCC50V54A, PCC46A49A50V54A, PCC50L, PCC50F) side chains (FIG. 6 and FIG. 9). The TCR transgenic mice were backcrossed to C57BL6 TCRα^− knockout mice so that almost all T cells expressing transgenic TCR become CD4^+ T cells (FIG. 4A and FIG. 10A). Initially, the inventors examined the capacity of agonist peptides to induce negative selection of transgenic T cells.
sequence,measurement,setting,value
"AEGFSYTVANKAKGIT [PCC50V54A, analog of pigeon cytochrome C peptide PCC(43-58)]",total number of lymph node cells,peripheral CD4^+ T cells; 50 μg,11.5×10^6±1.6
same,number of peripheral CD4 transgenic T cells,peripheral CD4^+ T cells; versus non-injected thymectomized controls,very low and did not increase; also recorded: very few CD4^+ peripheral T cells
same,presence of transgenic CD4^+ T cells in transplanted thymus and host lymph nodes,transgenic CD4^+ T cells; donor neonates injected (2 μg) 24 hours before transplantation,found only in mice grafted with thymi from neonates injected with the selecting peptide; also recorded: repopulate peripheral lymph nodes
same,presence of transgenic CD4^+ T cells in transplanted thymus and lymph nodes,"transgenic CD4^+ T cells; recipients injected two days after surgery, analysed after 10 days","found only in thymus-grafted mice, injected with the selecting peptide"
same,total number of lymph node cells,"transgenic CD4^+ T cells; recipients of neonatal thymi injected with the selecting peptide, two weeks after transplantation",25.5×10^6±4.2
same,lineage commitment of thymocytes in FTOC,transgenic thymocytes [1],the majority of thymocytes committed to the CD8 lineage
same,CD4^+ cells in peripheral lymph nodes,"lymph node cells; after i.p. injection, about two weeks",increase in the number of CD4^+ cells
same,"phenotype of peripheral CD4^+ cells (CD44, CD62L)","lymph node cells; mouse, in vivo",had naïve phenotype
same,total number of lymph node cells,lymph node cells; two weeks after injection,44.1×10^6±9.8
same,negative selection of transgenic thymocytes,"transgenic thymocytes [2]; 20 μg i.p., 24 hours, thymus cellularity, annexin V, TUNNEL",does not induce negative selection; also recorded: did not induce negative selection
same,thymus cellularity,"transgenic thymocytes [2]; 20 μg, TgTCRα^−H-2M^−Ii^− or TgTCRα^−A^bwt mice",the same as in control mice
same,negative selection / deletion of transgenic thymocytes,"transgenic thymocytes [2]; 200 μg/mouse i.p., 24 hours",induced profound negative selection; also recorded: induced profound deletion
same,apoptotic cells by TUNNEL assay and annexin V staining,"transgenic thymocytes [2]; after peptide injection, 20 μg",failed to demonstrate apoptotic cells
